Laboratory results published in patent publication US10517867B2, “Posaconazole derivative, pharmaceutical composition and use thereof” (priority 2016, dated 2019).
Where two headings read alike, the source gives them in different places.

Legend:
[1] = test system: Aspergillus Fumigutus (AF) strains; test: Aspergillus fumigatus keratitis in rats, intravenous administration; conditions: 10 mg/kg tail vein once daily for 5 days; mean ± SD of 10 rats
[2] = test system: Candida albicans ATCC10231; test: Candida albicans vaginitis in mice, intravenous administration; conditions: logarithm of the CFU values, mean ± SD of 20 mice; for vaginal fungal load of mice, day 5: 20 mg/kg tail vein once a day for 5 days, day 5 after infection; for vaginal fungal load of mice, day 3: 20 mg/kg tail vein once a day, day 3 after infection
Description: KM mice, weighing 18-22 g, female, provided by Hubei Experimental Animal Center.
The standard strain of Candida albicans was purchased from the American Type Culture
Collection, strain number ATCC10231.
Prior to being infected with Candida albicans, animals in each group were given subcutaneous injections of 0.5 ml of estradiol benzoate (2 mg/ml) for 6 consecutive days to allow them to enter the estrus phase. Injections were continued once every 2 days until the completion of the experiment. After 6 days, 20 μl of Candida albicans solution in a concentration of 3.5×10^6 CFU/ml was injected vaginally into each mouse, causing a vaginal infection model. From the first day after infection, each group of animals was given 20 mg/kg of the corresponding drug (calculated as posaconazole) in the tail vein at an administration volume of 0.1 ml/10 g once a day for 5 consecutive days. The model group was given an equal volume of solvent (physiological saline). On the 3rd and 5th days after infection, the vagina of mice were wiped with sterile cotton swabs. The cotton swabs were soaked in 0.9 ml physiological saline. The fungal solutions were diluted to 10-fold increments to give a series of concentrations, and then 100 μl of each concentration of the bacteria solutions was taken and inoculated on Sabourand's dextrose agar solid medium containing 0.5% (W/V) chloramphenicol to observe the fungal load of Candida albicans on the vagina.

[3] = test system: Candida albicans ATCC10231; test: Candida albicans vaginitis in mice, intragastric administration; assay type: in vivo, KM mice; conditions: logarithm of the CFU values, mean ± SD of 20 mice; for vaginal fungal load of mice, day 15: 20 mg/kg intragastric once a day for 15 days; for vaginal fungal load of mice, day 3 / vaginal fungal load of mice, day 5 / vaginal fungal load of mice, day 7 / vaginal fungal load of mice, day 11: 20 mg/kg intragastric once a day
[4] = Determination of solubility in deionized water (HPLC, external standard); conditions: for solubility at 30 min: 25 °C, water, thermodynamic from solid
[5] = test system: Aspergillus fumigatus AF293; test: Lung Aspergillus fumigatus infection in immunosuppressed mice, intragastric administration; conditions: mouse lung tissue, seven days later, 20 mg/kg intragastric once daily for 5 days, mean ± SD
Description: Aspergillus fumigatus AF293, from the Guangdong Provincial Microbial Culture Collection Center.
ICR male mice were injected intraperitoneally with cyclophosphamide 150 mg/kg and injected subcutaneously with dexamethasone 150 mg/kg for 10 consecutive days. At the same time, the blood was taken to measure the changes of peripheral white blood cells and neutrophils, and mice with neutrophils consistently lower than 100/μl were selected as successfully immunosuppressed mice. Immediately after the last injection, the mice were anesthetized with ethyl ether, and mice were transferred from the initial state of excitement to inhibition. After their bodies were relaxed, the mice were immediately taken. Left hand was used to grasp the mouse to make it stand upright, the middle finger pressed the mouth so that it could breath only with the nose, and the ring finger gently pressed the abdomen to move the diaphragm muscle upward. 30 μl of conidia suspension (Aspergillus fumigatus AF293, 3×10^6 conidia) was sent to the nostrils of the anesthetized mice by a micropipette to allow spontaneous inhalation. After the mouse returned to normal breathing, it was returned to the cage. […] Seven days later, the mice were sacrificed and their lung tissues were taken to observe the fungal loads of Aspergillus fumigatus in the lungs of the mice.

[6] = test system: Aspergillus fumigatus AF293; test: Lung Aspergillus fumigatus infection in immunosuppressed mice, intravenous administration; conditions: for survival rate of mice, day 1 / survival rate of mice, day 2 / survival rate of mice, day 3 / survival rate of mice, day 4 / survival rate of mice, day 5 / survival rate of mice, day 6 / lung fungal load: 20 mg/kg tail vein once daily for 5 days; for lung fungal load: mouse lung tissue, seven days later, mean ± SD; for responders at 20 mg/kg: Aspergillus fumigatus, AF293, in Mus musculus, iv
Description: ICR male mice were injected intraperitoneally with cyclophosphamide 150 mg/kg and injected subcutaneously with dexamethasone 150 mg/kg for 10 consecutive days. At the same time, the blood was taken to measure the changes of peripheral white blood cells and neutrophils, and mice with neutrophils consistently lower than 100/μl were selected as successfully immunosuppressed mice. Immediately after the last injection, the mice were anesthetized with ethyl ether, and mice were transferred from the initial state of excitement to inhibition. After their bodies were relaxed, the mice were immediately taken. Left hand was used to grasp the mouse to make it stand upright, the middle finger pressed the mouth so that it could breath only with the nose, and the ring finger gently pressed the abdomen to move the diaphragm muscle upward. 30 μl of conidia suspension (Aspergillus fumigatus AF293, 3×10^6 conidia) was sent to the nostrils of the anesthetized mice by a micropipette to allow spontaneous inhalation. After the mouse returned to normal breathing, it was returned to the cage. […] The death of the mice was observed and the survival time was recorded. Seven days later, the mice were sacrificed and their lung tissues were taken to observe the fungal loads of Aspergillus fumigatus in the lungs of the mice.

[7] = test system: Candida albicans ATCC10231; test: Systemic fungal infection in mice, intragastric administration; assay type: in vivo, ICR mice; conditions: for responders at 20 mg/kg: Candida albicans, ATCC10231, po
physchem = conditions: 25 °C, water, thermodynamic from solid
[8] = 24 h, read-out: survival rate of mice, day 1, 20 mg/kg tail vein once daily for 5 days, day 1
[9] = 48 h, read-out: survival rate of mice, day 2, 20 mg/kg tail vein once daily for 5 days, day 2
[10] = 72 h, read-out: survival rate of mice, day 3, 20 mg/kg tail vein once daily for 5 days, day 3
[11] = 96 h, read-out: survival rate of mice, day 4, 20 mg/kg tail vein once daily for 5 days, day 4
[12] = 120 h, read-out: survival rate of mice, day 5, 20 mg/kg tail vein once daily for 5 days, day 5
[13] = 144 h, read-out: survival rate of mice, day 6, 20 mg/kg tail vein once daily for 5 days, day 6
[14] = 168 h, read-out: survival rate of mice, day 7, 20 mg/kg tail vein once daily for 5 days, day 7
[15] = 24 h, read-out: survival rate of mice, day 1, 20 mg/kg intragastric once daily for 5 days, day 1
[16] = 48 h, read-out: survival rate of mice, day 2, 20 mg/kg intragastric once daily for 5 days, day 2
[17] = 72 h, read-out: survival rate of mice, day 3, 20 mg/kg intragastric once daily for 5 days, day 3
[18] = 96 h, read-out: survival rate of mice, day 4, 20 mg/kg intragastric once daily for 5 days, day 4
[19] = 120 h, read-out: survival rate of mice, day 5, 20 mg/kg intragastric once daily for 5 days, day 5
[20] = 144 h, read-out: survival rate of mice, day 6, 20 mg/kg intragastric once daily for 5 days, day 6
[21] = 168 h, read-out: survival rate of mice, day 7, 20 mg/kg intragastric once daily for 5 days, day 7

Compound: CC[C@@H]([C@H](C)O)n1ncn(-c2ccc(N3CCN(c4ccc(OC[C@@H]5CO[C@@](Cn6c[n+](C(C)OC(=O)N(C)c7ncccc7COC(=O)[C@@H](N)CCCN)cn6)(c6ccc(F)cc6F)C5)cc4)CC3)cc2)c1=O (stereo partly shown) [ST0011]
- Amount of active fungi in cornea at day 7 [1]: 1.79 ± 0.44 10^3 CFU/ml
- vaginal fungal load of mice, day 5 ([2]; 20 mg/kg): 3.75 ± 0.47
- vaginal fungal load of mice, day 3 ([2]; 20 mg/kg): 4.09 ± 0.39
- vaginal fungal load of mice, day 15 ([3]; 20 mg/kg): 2.81 ± 0.27
- vaginal fungal load of mice, day 3 ([3]; 20 mg/kg): 4.18 ± 0.27
- vaginal fungal load of mice, day 5 ([3]; 20 mg/kg): 4.35 ± 0.47
- vaginal fungal load of mice, day 7 ([3]; 20 mg/kg): 3.85 ± 0.67
- vaginal fungal load of mice, day 11 ([3]; 20 mg/kg): 3.29 ± 0.20
- Solubility ([4]; 25±2° C., after 30 min): >50 mg/mL
- lung fungal load ([5]; 20 mg/kg): 3.47 ± 0.71 10^4 CFU/ml
- survival rate of mice, day 1 ([6]; day 1): 100%
- survival rate of mice, day 2 ([6]; day 2): 100%
- survival rate of mice, day 3 ([6]; day 3): 100%
- survival rate of mice, day 4 ([6]; day 4): 100%
- survival rate of mice, day 5 ([6]; day 5): 90%
- survival rate of mice, day 6 ([6]; day 6): 90%
- lung fungal load ([6]; 20 mg/kg): 1.46 ± 0.27 10^4 CFU/ml
- survival rate of mice, day 1 ([7]; 20 mg/kg intragastric once daily for 5 days, day 1): 100%
- survival rate of mice, day 2 ([7]; 20 mg/kg intragastric once daily for 5 days, day 2): 100%
- survival rate of mice, day 3 ([7]; 20 mg/kg intragastric once daily for 5 days, day 3): 90%
- survival rate of mice, day 4 ([7]; 20 mg/kg intragastric once daily for 5 days, day 4): 80%
- survival rate of mice, day 5 ([7]; 20 mg/kg intragastric once daily for 5 days, day 5): 70%
- survival rate of mice, day 6 ([7]; 20 mg/kg intragastric once daily for 5 days, day 6): 60%
- survival rate of mice, day 7 ([7]; 20 mg/kg intragastric once daily for 5 days, day 7): 60%

Compound: CC[C@@H]([C@H](C)O)n1ncn(-c2ccc(N3CCN(c4ccc(OC[C@@H]5CO[C@@](Cn6c[n+](C(C)OC(=O)N(C)c7ccccc7COC(=O)[C@@H](N)CCCN)cn6)(c6ccc(F)cc6F)C5)cc4)CC3)cc2)c1=O (stereo partly shown) [ST0008]
- Amount of active fungi in cornea at day 7 [1]: 2.59 ± 0.37 10^3 CFU/ml
- vaginal fungal load of mice, day 5 [2]: 3.86 ± 0.21
- vaginal fungal load of mice, day 3 [2]: 4.05 ± 0.25
- vaginal fungal load of mice, day 15 [3]: 2.68 ± 0.18
- vaginal fungal load of mice, day 3 [3]: 4.21 ± 0.32
- vaginal fungal load of mice, day 5 [3]: 4.34 ± 0.47
- vaginal fungal load of mice, day 7 [3]: 3.85 ± 0.35
- vaginal fungal load of mice, day 11 [3]: 3.31 ± 0.29
- solubility at 30 min [4]: > 50 mg/mL
- lung fungal load [5]: 3.49 ± 0.64 10^4 CFU/ml
- responders at 20 mg/kg [6, 8]: 100%
- responders at 20 mg/kg [6, 9]: 100%
- responders at 20 mg/kg [6, 10]: 100%
- responders at 20 mg/kg [6, 11]: 90%
- responders at 20 mg/kg [6, 12]: 80%
- responders at 20 mg/kg [6, 13]: 80%
- responders at 20 mg/kg [6, 14]: 70%
- lung fungal load [6]: 2.07 ± 0.42 10^4 CFU/ml
- responders at 20 mg/kg [7, 15]: 100%
- responders at 20 mg/kg [7, 16]: 90%
- responders at 20 mg/kg [7, 17]: 90%
- responders at 20 mg/kg [7, 18]: 80%
- responders at 20 mg/kg [7, 19]: 80%
- responders at 20 mg/kg [7, 20]: 60%
- responders at 20 mg/kg [7, 21]: 60%

Compound: CC[C@@H]([C@H](C)OC(=O)[C@@H](N)CO)n1ncn(-c2ccc(N3CCN(c4ccc(OC[C@@H]5CO[C@@](Cn6c[n+](C(C)OC(=O)N(C)c7ncccc7COC(=O)[C@@H](N)CCCN)cn6)(c6ccc(F)cc6F)C5)cc4)CC3)cc2)c1=O (stereo partly shown) [ST0010]
- Amount of active fungi in cornea at day 7 [1]: 3.93 ± 0.73 10^3 CFU/ml
- vaginal fungal load of mice, day 15 [3]: 2.75 ± 0.41
- vaginal fungal load of mice, day 3 [3]: 4.21 ± 0.32
- vaginal fungal load of mice, day 5 [3]: 4.38 ± 0.41
- vaginal fungal load of mice, day 7 [3]: 3.97 ± 0.55
- vaginal fungal load of mice, day 11 [3]: 3.37 ± 0.28
- solubility at 30 min [4]: > 50 mg/mL
- lung fungal load [5]: 3.40 ± 0.63 10^4 CFU/ml
- responders at 20 mg/kg [6, 8]: 100%
- responders at 20 mg/kg [6, 9]: 100%
- responders at 20 mg/kg [6, 10]: 90%
- responders at 20 mg/kg [6, 11]: 80%
- responders at 20 mg/kg [6, 12]: 80%
- responders at 20 mg/kg [6, 13]: 70%
- responders at 20 mg/kg [6, 14]: 60%
- lung fungal load [6]: 2.75 ± 0.37 10^4 CFU/ml
- responders at 20 mg/kg [7, 15]: 100%
- responders at 20 mg/kg [7, 16]: 100%
- responders at 20 mg/kg [7, 17]: 90%
- responders at 20 mg/kg [7, 18]: 70%
- responders at 20 mg/kg [7, 19]: 70%
- responders at 20 mg/kg [7, 20]: 60%
- responders at 20 mg/kg [7, 21]: 60%

Compound: CC[C@@H]([C@H](C)OP(=O)(O)O)n1ncn(-c2ccc(N3CCN(c4ccc(OC[C@@H]5CO[C@@](Cn6c[n+](C(C)OC(=O)N(C)c7ncccc7COC(=O)[C@@H](N)CCCN)cn6)(c6ccc(F)cc6F)C5)cc4)CC3)cc2)c1=O (stereo partly shown) [ST0009]
- Amount of active fungi in cornea at day 7 [1]: 2.76 ± 0.45 10^3 CFU/ml
- vaginal fungal load of mice, day 5 [2]: 3.89 ± 0.54
- vaginal fungal load of mice, day 3 [2]: 4.05 ± 0.23
- solubility at 30 min [4]: > 50 mg/mL
- lung fungal load [5]: 3.91 ± 0.85 10^4 CFU/ml
- responders at 20 mg/kg [6, 8]: 100%
- responders at 20 mg/kg [6, 9]: 100%
- responders at 20 mg/kg [6, 10]: 100%
- responders at 20 mg/kg [6, 11]: 90%
- responders at 20 mg/kg [6, 12]: 80%
- responders at 20 mg/kg [6, 13]: 80%
- responders at 20 mg/kg [6, 14]: 70%
- lung fungal load [6]: 2.03 ± 0.46 10^4 CFU/ml

Compound: CC[C@@H]([C@H](C)O)n1ncn(-c2ccc(N3CCN(c4ccc(OC[C@@H]5CO[C@@](Cn6c[n+](C(C)OC(=O)OP(=O)(O)O)cn6)(c6ccc(F)cc6F)C5)cc4)CC3)cc2)c1=O.[Na+].[Na+] (stereo partly shown) [ST0039]
- Solubility (physchem): > 50 mg/mL

Compound: CC[C@@H]([C@H](C)O)n1ncn(-c2ccc(N3CCN(c4ccc(OC[C@@H]5CO[C@@](Cn6c[n+](C(C)OC(=O)N(C)c7ncccc7COC(=O)[C@@H](N)CCCN)cn6)(c6ccc(F)cc6F)C5)cc4)CC3)cc2)c1=O (stereo partly shown) [ST0007]
- Amount of active fungi in cornea at day 7 [1]: 1.87 ± 0.35 10^3 CFU/ml
- vaginal fungal load of mice, day 5 ([2]; 20 mg/kg): 3.87 ± 0.31
- vaginal fungal load of mice, day 3 ([2]; 20 mg/kg): 4.08 ± 0.52
- vaginal fungal load of mice, day 15 ([3]; 20 mg/kg): 2.87 ± 0.24
- vaginal fungal load of mice, day 3 ([3]; 20 mg/kg): 4.35 ± 0.54
- vaginal fungal load of mice, day 5 ([3]; 20 mg/kg): 4.47 ± 0.65
- vaginal fungal load of mice, day 7 ([3]; 20 mg/kg): 4.23 ± 0.41
- vaginal fungal load of mice, day 11 ([3]; 20 mg/kg): 3.81 ± 0.27
- solubility at 30 min [4]: > 50 mg/mL
- lung fungal load ([5]; 20 mg/kg): 4.12 ± 0.87 10^4 CFU/ml
- survival rate of mice, day 1 ([6]; day 1): 100%
- survival rate of mice, day 2 ([6]; day 2): 100%
- survival rate of mice, day 3 ([6]; day 3): 100%
- survival rate of mice, day 4 ([6]; day 4): 100%
- survival rate of mice, day 5 ([6]; day 5): 90%
- survival rate of mice, day 6 ([6]; day 6): 90%
- lung fungal load ([6]; 20 mg/kg): 1.68 ± 0.31 10^4 CFU/ml
